In US20110082130A1 (LIGAND PHARMACEUTICALS, INC., priority 2006, published 2011):
Where two headings read alike, the source gives them in different places.

Molecular target: T1, chimeric human H3 receptor (Homo sapiens, UniProt Q9Y5N1)
T1 construct: made in house; host or cells: Sf9 insect cells (baculovirus); P2 membrane preparation
Test: Chimeric human H3 receptor screening GTP binding assay (inhibition of histamine-stimulated GTP-gamma35S binding, Example 8)
Format: biochemical
Details: 4 μM of the compound, 1 μM histamine, read-out: percent inhibition of the signal obtained with 1 μM histamine
Outline: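 Sf9 membranes co-expressing chimeric human H3 receptor and heterotrimeric G-protein, 35 μg per reaction, incubated 60 min at room temperature with 4 μM compound, 1 μM histamine, 10 μM GDP and […] GTP-gamma35S at pH 7.4. Filter-bound radioactivity counted. Result expressed as percent inhibition of the histamine signal after subtracting non-specific binding (10 μM GTP-gammaS).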

T1 sequence (Q9Y5N1 with tags, fused parts or gaps): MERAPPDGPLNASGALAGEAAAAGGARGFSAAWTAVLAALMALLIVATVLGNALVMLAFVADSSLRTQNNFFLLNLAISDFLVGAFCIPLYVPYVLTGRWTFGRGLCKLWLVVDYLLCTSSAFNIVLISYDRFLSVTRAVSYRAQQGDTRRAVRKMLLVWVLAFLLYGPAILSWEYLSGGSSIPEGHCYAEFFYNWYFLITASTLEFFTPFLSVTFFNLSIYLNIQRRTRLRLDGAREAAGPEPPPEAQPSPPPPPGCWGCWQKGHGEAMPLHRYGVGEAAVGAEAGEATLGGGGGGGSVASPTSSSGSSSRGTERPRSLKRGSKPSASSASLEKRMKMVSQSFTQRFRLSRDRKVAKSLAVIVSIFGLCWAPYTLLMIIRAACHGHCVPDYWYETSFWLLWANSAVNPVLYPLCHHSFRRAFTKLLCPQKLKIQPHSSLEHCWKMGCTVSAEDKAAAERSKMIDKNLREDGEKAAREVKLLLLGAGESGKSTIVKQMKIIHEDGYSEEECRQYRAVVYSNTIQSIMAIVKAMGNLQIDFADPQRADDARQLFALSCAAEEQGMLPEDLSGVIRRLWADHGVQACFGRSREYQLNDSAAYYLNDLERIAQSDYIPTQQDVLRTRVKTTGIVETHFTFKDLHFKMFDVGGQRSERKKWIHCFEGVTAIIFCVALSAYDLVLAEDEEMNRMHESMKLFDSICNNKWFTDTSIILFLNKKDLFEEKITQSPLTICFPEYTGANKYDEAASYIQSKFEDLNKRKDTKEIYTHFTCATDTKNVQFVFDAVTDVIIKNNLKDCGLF

inhibition at 4 µM ("†" in Ki of Table II)	inhibition at 4 µM (Table II "Ki", symbol †)	SMILES
≥ 90%		O=C(CN1CCc2cc(-c3cccc4c3oc3ccccc34)ccc2C1)N1CCN(C2CCCCC2)CC1 [Compound 384, 2-[2-(4-cyclohexylpiperazin-1-yl)-2-oxoethyl]-6-dibenzo[b,d]furan-4-yl-1,2,3,4-tetrahydroisoquinoline]
	≥ 90%	COc1ccc(-c2ccc3c(c2)CCN(CC(=O)N2CCN(C4CCC4)CC2)C3)c(OC)c1 [Compound 563, 2-[2-(4-cyclobutylpiperazin-1-yl)-2-oxoethyl]-6-(2,4-dimethoxyphenyl)-1,2,3,4-tetrahydroisoquinoline]
≥ 90%		O=C(CN1CCc2cc(-c3cccc(Cl)c3)ccc2C1)N1CCN(C2CCCCC2)CC1 [Compound 403, 6-(3-chlorophenyl)-2-[2-(4-cyclohexylpiperazin-1-yl)-2-oxoethyl]-1,2,3,4-tetrahydroisoquinoline]
≥ 90%		Cc1ccc(F)c(-c2ccc3c(c2)CCN(CC(=O)N2CCN(C4CCC4)CC2)C3)c1 [Compound 423, 2-[2-(4-cyclobutylpiperazin-1-yl)-2-oxoethyl]-6-(2-fluoro-5-methylphenyl)-1,2,3,4-tetrahydroisoquinoline]
	≥ 90%	CC(C)N1CCN(C(=O)CN2CCc3cc(-c4ccc(Oc5ccccc5)cc4)ccc3C2)CC1 [Compound 489, 2-[2-(4-isopropylpiperazin-1-yl)-2-oxoethyl]-6-(4-phenoxyphenyl)-1,2,3,4-tetrahydroisoquinoline]
≥ 90%		Cc1ccc(-c2ccc3c(c2)CCN(CC(=O)N2CCN(C4CCCCC4)CC2)C3)cc1 [Compound 437, 2-[2-(4-cyclohexylpiperazin-1-yl)-2-oxoethyl]-6-(4-methylphenyl)-1,2,3,4-tetrahydroisoquinoline]
≥ 90%		O=C(CN1CCc2cc(-c3ccc(F)cc3)ccc2C1)N1CCN(C2CCC2)CC1 [Compound 407, 2-[2-(4-cyclobutylpiperazin-1-yl)-2-oxoethyl]-6-(4-fluorophenyl)-1,2,3,4-tetrahydroisoquinoline]
	≥ 90%	CC(C)CN1CCN(C(=O)CN2CCc3cc(-c4cncnc4)ccc3C2)CC1 [Compound 605, 2-[2-(4-isobutylpiperazin-1-yl)-2-oxoethyl]-6-pyrimidin-5-yl-1,2,3,4-tetrahydroisoquinoline]
	≥ 90%	COc1ccc(F)cc1-c1ccc2c(c1)CCN(CC(=O)N1CCN(C3CCC3)CC1)C2 [Compound 570, 2-[2-(4-cyclobutylpiperazin-1-yl)-2-oxoethyl]-6-(5-fluoro-2-methoxyphenyl)-1,2,3,4-tetrahydroisoquinoline]
	≥ 90%	COc1cc(F)c(-c2ccc3c(c2)CCN(CC(=O)N2CCN(C(C)C)CC2)C3)cc1F [Compound 508, 6-(2,5-difluoro-4-methoxyphenyl)-2-[2-(4-isopropylpiperazin-1-yl)-2-oxoethyl]-1,2,3,4-tetrahydroisoquinoline]
	≥ 90%	CN(C)c1ccc(-c2ccc3c(c2)CCN(CC(=O)N2CCN(C4CCCCC4)CC2)C3)cc1 [Compound 534, 4-{2-[2-(4-cyclohexylpiperazin-1-yl)-2-oxoethyl]-1,2,3,4-tetrahydroisoquinolin-6-yl}-N,N-dimethylaniline]
	≥ 90%	CN(C)c1cccc(-c2ccc3c(c2)CCN(CC(=O)N2CCN(C4CCCC4)CC2)C3)c1 [Compound 537, 3-{2-[2-(4-cyclopentylpiperazin-1-yl)-2-oxoethyl]-1,2,3,4-tetrahydroisoquinolin-6-yl}-N,N-dimethylaniline]
≥ 90%		O=C(CN1CCc2cc(-c3ccc4ccccc4c3)ccc2C1)N1CCN(C2CCCC2)CC1 [Compound 417, 2-[2-(4-cyclopentylpiperazin-1-yl)-2-oxoethyl]-6-(2-naphthyl)-1,2,3,4-tetrahydroisoquinoline]
	≥ 90%	COc1ccc(-c2ccc3c(c2)CCN(CC(=O)N2CCN(C4CCCCC4)CC2)C3)cc1 [Compound 522]
